This test deals with human σ2 receptor (TMEM97) (Homo sapiens, UniProt Q5BJF2). Briefly: biochemical. The settings on record: read-out: % of control remaining. It is filed as Expi293 membranes.
Chain of human σ2 receptor (TMEM97) (Q5BJF2 whole entry): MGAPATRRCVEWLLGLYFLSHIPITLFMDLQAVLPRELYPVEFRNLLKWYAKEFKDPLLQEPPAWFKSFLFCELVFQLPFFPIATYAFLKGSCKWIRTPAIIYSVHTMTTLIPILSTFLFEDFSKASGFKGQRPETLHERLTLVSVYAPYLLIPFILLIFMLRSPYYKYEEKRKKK
For the compound `Cc1cccc(NC(=O)N(C)C[C@H]2CCCN2C)c1C(=O)N1CCCC1` [ZINC000516964180], the remaining activity at 1 µM came out at 99.3%.

On to `CC(C)N1CC[C@H](N(C)S(=O)(=O)C[C@H]2CCCCC2(F)F)C1` [ZINC000452100574], for which the remaining activity at 1 µM came to 73.3%.

For the compound `Brc1ccccc1CNc1nccn1Cc1ccccc1` [ZINC000508455082], the remaining activity at 1 µM was 69.3%.

With `O=C(NC[C@H]1CCCN1)Nc1cc(F)cc(F)c1Br` [ZINC000415549177], the remaining activity at 1 µM is 73.8%.

As to `CCCn1c(C)cc(/C=C(/C#N)C(=O)NCCN(C)Cc2ccccc2)c1C` [ZINC000064804934], the remaining activity at 1 µM amounted to 85%.

Regarding `CN(CCCN(C)C(=O)C(=O)N(CCO)C1CC1)Cc1ccco1` [ZINC000297448741], the remaining activity at 1 µM turned out to be 105%.

`COc1ccc([C@H]2CCN(C[C@@H](O)c3ccc(F)cc3Cl)C2)cc1` [ZINC000775588849]: the remaining activity at 1 µM amounted to 39%.

`CC[C@H](CO)N1CCN(c2cc(Cl)c3cnn(C)c3n2)CC1` [ZINC000892713700]: the remaining activity at 1 µM was found to be 99.5%.

For the compound `COC1CCC(N(C)CC(=O)Nc2ccc3ccccc3c2)CC1` (centres unmarked) [ZINC000265181994], the remaining activity at 1 µM was determined as 102%.

Turning to `C[C@@H]1[C@H](Cc2ccccc2)CCN1Cc1cc(=O)n2cc(Cl)ccc2n1` [ZINC000472356611], the remaining activity at 1 µM was 45.9%.

As to `Cc1ccc2c(c1)[C@H](NC(=O)NC[C@@H]1CCN(C(C)C)C1)CCC2` [ZINC000575186982], the remaining activity at 1 µM was found to be 22.9%.

Regarding `C[C@H](c1ccccn1)N1CC=C(c2ccc(O)cc2)CC1` [ZINC000176995469], the remaining activity at 1 µM stood at 61.4%.

Consider `CC[C@H]1CN(Cc2ccc(-c3ccccc3)cc2F)C[C@H]1O` [ZINC000507809396], for which the remaining activity at 1 µM was found to be 14%.

On to `OC[C@]1(CNC2=NCCCN2)CCc2ccccc21` [ZINC000656508398], for which the remaining activity at 1 µM is 55.9%.

With `CN1CCC[C@H]1C(=O)NCC1(O)CN(C(=O)CCc2ncccn2)C1` [ZINC001042098162], the remaining activity at 1 µM came to 102%.

As for `CS[C@H]1CCN([C@H](C)c2nc(-c3ccccc3C)no2)C1` [ZINC000296435291], the remaining activity at 1 µM was 106%.

`COCCC(=O)N1CC[C@@](O)(CNC(=O)[C@@H]2CCN(C)C2=O)C1` [ZINC001040614201]: the remaining activity at 1 µM was determined as 117%.

For `N[C@@H](CC(=O)Nc1cccc(C(=O)N2CCCC2)c1)c1ccccc1` [ZINC000237909071], the remaining activity at 1 µM stood at 89%.

Regarding `CN1CCC[C@@H]2CN(Cn3ccc(-c4ccc(Br)cc4)n3)CC[C@H]21` [ZINC000247147334], the remaining activity at 1 µM amounted to 104%.

Turning to `C[C@@H](CO)N1CCCN([C@@H](C)C(=O)Nc2cccc(Cl)c2Cl)CC1` [ZINC000375486080], the remaining activity at 1 µM turned out to be 48.7%.

Regarding `O=C([C@@H]1CCCN1c1ncccn1)N1CC[C@@H](N2CC[C@H](O)C2)C1` [ZINC000627254962], the remaining activity at 1 µM amounted to 114%.

On to `C[C@H](NC1CC1)C(=O)NCc1ccc(C(=O)N=c2cc[nH]cc2)cc1` [ZINC000576277949], for which the remaining activity at 1 µM was found to be 67.2%.

Consider `Cn1nncc1C(=O)NC[C@H]1CC[C@@H](NC(=O)c2cnns2)C1` [ZINC000981250423], for which the remaining activity at 1 µM came to 97.2%.

Take `C[C@H](NC[C@H](CO)Cc1c(F)cccc1Cl)c1ccco1` [ZINC000483826940]: the remaining activity at 1 µM was 22.5%.

On to `Cc1cccc(C)c1OC[C@H](C)NC(=O)C(=O)NC[C@@H]1CCCNC1` [ZINC000418924570], for which the remaining activity at 1 µM worked out at 64.9%.

Consider `O=C1[C@@H](N2CC[C@@H](C3OCCO3)C2)CCN1c1cccc(Br)c1` [ZINC000932000298], for which the remaining activity at 1 µM turned out to be 75.9%.

Turning to `CCCN(C)C[C@H]1CCN([C@H](C)C(=O)c2c[nH]c3ncccc23)C1` [ZINC000271284821], the remaining activity at 1 µM was determined as 28.3%.

Consider `O=C(C1CCCC1)N1CCC[C@H]([C@@H]2CCN(C/C=C\Cl)C2)C1` [ZINC000961091031], for which the remaining activity at 1 µM came out at 33%.

As to `C[C@@H](NC(=O)c1cnnn1C)C1CN(C(=O)C23CCCN2CCC3)C1` [ZINC001006004942], the remaining activity at 1 µM was determined as 126%.

`C[C@@H](C(=O)NC[C@H](C)N1CCCC1)c1c(Cl)cccc1Cl` [ZINC000586751050]: the remaining activity at 1 µM came to 98.2%.

For `Cc1csc2nc(CN[C@](C)(CO)Cc3ccc(F)cc3)cc(=O)n12` [ZINC000933438523], the remaining activity at 1 µM came out at 28.1%.

In the case of `c1ccc(SC[C@@H]2CCN(c3cc(N4CCCCC4)ncn3)C2)cc1` [ZINC000301468116], the remaining activity at 1 µM was 88.5%.

For `O=C(C[C@H]1C=CCC1)NCC1(O)CCN(C(=O)c2cncnc2)CC1` [ZINC001074556982], the remaining activity at 1 µM was 89.6%.

For `C[C@@H](C(N)=O)N1CCC[C@H](CNC(=O)c2nn(C)c3c2CCCC3)C1` [ZINC001023604137], the remaining activity at 1 µM is 89.3%.

For `CON(C)CCNC(=O)C(=O)Nc1ccc2c(c1)C(=O)N(C)C2=O` [ZINC000850493342], the remaining activity at 1 µM is 136%.

With `N[C@H](Cc1ccccn1)C(=O)NCc1ccccc1C(F)(F)F` [ZINC001580410121], the remaining activity at 1 µM is 122%.

As for `CCc1nc2cc(CN[C@@H](C)CC(=O)N3CCCCCC3)ccc2n1C1CC1` [ZINC000574654702], the remaining activity at 1 µM worked out at 48.4%.

For the compound `C[C@@H]1CCCN1CCNC(=O)N1CCC[C@@H]1[C@@H]1CCCC[C@@]1(C)O` [ZINC000897504395], the remaining activity at 1 µM stood at 90.9%.

For the compound `CC(C)OCCN1CCC(NC(=O)[C@@H]2CCc3nncn3C2)CC1` [ZINC000556484619], the remaining activity at 1 µM was determined as 112%.

As for `C[C@@H]1CCC[C@H](CCN2CCC([C@H](O)c3ncc[nH]3)CC2)C1` [ZINC000839577413], the remaining activity at 1 µM came to 28.7%.

Take `O=C(Cn1cc([N+](=O)[O-])ccc1=O)N1CC[C@H](N2CC[C@@H](O)C2)C1` [ZINC000588863575]: the remaining activity at 1 µM was determined as 134%.

With `O=C1CCCCN1C1CCN(C[C@H](O)C[C@]2(O)CCOC2)CC1` [ZINC000929842198], the remaining activity at 1 µM stood at 104%.

In the case of `COCCN1C[C@H](C(=O)N[C@H]2C[C@H](NC(=O)c3cn[nH]c3)C2)CC1=O` [ZINC000973057271], the remaining activity at 1 µM is 111%.

Consider `Cc1ccc(C[C@H](CO)NCc2cccc(F)c2)cc1C` [ZINC000453607577], for which the remaining activity at 1 µM amounted to 86.8%.

Consider `CN1CCN(C2CCN(c3nc(N)c4ccccc4n3)CC2)CC1` [ZINC000866213504], for which the remaining activity at 1 µM was 204%.

Regarding `C[C@@H](Cc1ccc2c(c1)CCCC2)N[C@H]1CCN(C2CCOCC2)C1=O` [ZINC000657922756], the remaining activity at 1 µM was 1.7%.

As for `O=C(CN[C@H]1CCNC12CCC2)NCCN1CCc2ccccc21` [ZINC000903470913], the remaining activity at 1 µM was found to be 92.2%.

Regarding `CC[C@@H]1[C@@H](NC(=O)Cc2ccc(C)cc2)CCN1C[C@@H]1CCOC1` [ZINC001087646081], the remaining activity at 1 µM worked out at 99.4%.

Turning to `CCN(CC)c1ncc(CN2CC(C(C)C)C2)s1` [ZINC000684407814], the remaining activity at 1 µM was 70.6%.

For the compound `Clc1ccc(O[C@H]2CCN(C3CCCC3)C2)cc1` [ZINC000645238909], the remaining activity at 1 µM was 35.5%.

As for `Cc1ccc(NC(=O)CN2CCC[C@@H](C3OCCO3)C2)cc1Cl` [ZINC000263644082], the remaining activity at 1 µM is 83.4%.

Consider `C[C@@H](C(=O)Nc1cccc(C2CCCCC2)c1)N1CCN(C)CC1` [ZINC000529649527], for which the remaining activity at 1 µM was 84.3%.

Regarding `O=C(Cn1cnnn1)N[C@H]1CCN(c2ncnc3c2CCC3)C[C@H]1O` [ZINC001051633080], the remaining activity at 1 µM worked out at 132%.

On to `C[C@H](CCNC(=O)N1CCO[C@H]([C@@H]2CCCO2)C1)N1CCCCC1` [ZINC000182663590], for which the remaining activity at 1 µM amounted to 98%.

For `CC1CCC(N2CCN(CCOC(C)C)CC2)CC1` (centres unmarked) [ZINC000115566238], the remaining activity at 1 µM amounted to 18.2%.

As to `CCc1c(C(=O)N[C@@H](C)C2CCN(C)CC2)cnn1-c1ccccc1` [ZINC000603324806], the remaining activity at 1 µM worked out at 65.5%.

Consider `Cc1cc(C(=O)N2CC[C@H](NCc3cccc(Cl)c3F)C2)ncn1` [ZINC001018723708], for which the remaining activity at 1 µM was found to be 101%.

On to `C[C@H](C(=O)NCC1CCCCC1)N1CCC[C@H](N2CCCC2=O)CC1` [ZINC000334024070], for which the remaining activity at 1 µM was 111%.

For the compound `C[C@@H](O)CN1CC[C@H](C2CCN(C(=O)CN3CCOCC3)CC2)C1` [ZINC001039123057], the remaining activity at 1 µM was 115%.

For `CN(C(=O)CN1CCC(c2cnc[nH]2)CC1)C(c1ccccc1)c1ccccc1` [ZINC000435004139], the remaining activity at 1 µM turned out to be 99.6%.

As to `Cc1ncc(CNC[C@@H]2CN(C(=O)c3cn(C)cn3)CCO2)cn1` [ZINC001051553588], the remaining activity at 1 µM was determined as 105%.

Regarding `Cn1cc(CN[C@H]2C[C@H](NC(=O)c3cccc(C(N)=O)n3)C2)cn1` [ZINC001021109191], the remaining activity at 1 µM was 106%.

For `Cc1c(C(=O)NC2CN(C(=O)c3cnns3)C2)ccc2cncn12` [ZINC000995014137], the remaining activity at 1 µM was 123%.

With `Cc1cccc(F)c1C(=O)NCC1CCN(CCn2cncn2)CC1` [ZINC001002178741], the remaining activity at 1 µM stood at 109%.

In the case of `Cn1cc(C(=O)N2CCO[C@@H](CNC(=O)C=C3CCC3)C2)ncc1=O` [ZINC001065434920], the remaining activity at 1 µM came to 57.8%.

On to `O[C@@H](CN[C@@H](Cc1ccccc1F)c1ccccc1)CN1CCCC1` [ZINC000429522320], for which the remaining activity at 1 µM was 60.1%.

`COC(=O)[C@H](NCC(C)(C)N1CCc2ccccc2C1)c1ccccc1` [ZINC000609803478]: the remaining activity at 1 µM was found to be 49.8%.

On to `CCCN1CC[C@H](NS(=O)(=O)c2ccc(C(=O)OC)cc2F)C1` [ZINC000595353335], for which the remaining activity at 1 µM came out at 97.7%.

Turning to `CC(C)n1cc(C(=O)N2CC(O)(CNC(=O)c3ccnnc3)C2)nn1` [ZINC001047126822], the remaining activity at 1 µM turned out to be 107%.

For `C[C@@H](NC(=O)C(=O)NCCCN1CCC[C@H](C(N)=O)C1)C1CCC1` [ZINC000671981913], the remaining activity at 1 µM is 106%.

Regarding `Fc1ccc(NC(=S)NC2CCN([C@H]3CCOC3)CC2)cc1` [ZINC000853031922], the remaining activity at 1 µM was determined as 115%.

The values above are taken from publication doi:10.1101/2021.04.29.441652v1 (biorxiv, 2021).
